The values that follow come from patent publication US20230312601A1, “THIAZOLO[5,4-B]PYRIDINE MALT-1 INHIBITORS” (AbbVie Inc., priority 2022, published 2023).

One data set deals with OCI-LY3 IL6. In words: MALT-1 Cell IL-6 AlphaLISA Assay. The format is cell-based. As to conditions: Homo sapiens; OCI-LY3 cells, 48 hours incubation; read-out: OCI-LY3 IL6 48 hour Inhibition EC50. Here is the method:
The following MALT-1 Cell Interleukin-6 (IL-6) AlphaLISA assay was conducted using a Perkin Elmer® IL-6 AlphaLISA® detection kit (PE AL223). The IL-6 detection assay is a homogeneous immunoassay that detects human IL-6 present in the cell culture medium in the MALT-1 dependent human ABC-DLBCL cell line, OCI-LY3. Compounds were pre-dispensed into Black 384w microtiter plates (Greiner, 781090) from 30 μM to 1.5 nM. Viable OCI-LY3 cells were then seeded on top of compounds at a seeding density of 50,000 cells/mL. Plates were then placed into 37° C. incubators for 48 hours. After 48 hours incubation, 2 μL of cell medium from each well was transferred into white ProxiPlates™ (PE 6008289). A fresh mix of AlphaLISA Acceptor beads (10 μg/mL) and Biotinylated IL-6 Antibody (1 nM) was made in AlphaLISA Immunoassay buffer and added to all wells (4 μL). The plates were incubated for 60 minutes at room temperature. Streptavidin donor beads (40 μg/mL) were prepared using the assay buffer and added to all wells (5 The plates were incubated for 30 minutes at room temperature and read using PE EnVision® reader. Results are shown in Table 3.

A further data set addresses human MALT-1 protein (Homo sapiens (Human), UniProt Q9UDY8). In words: MALT-1 Biochemical Assay (Quench-FRET enzyme assay). As to conditions: human MALT-1 6 nM, substrate 2 μM, 40 min preincubation. An excerpt:
A Quenched Fluorescence Resonance Energy Transfer (Quench-FRET) enzyme assay was used to test the ability of exemplary MALT-1 inhibitors Example 1 to Example 39 to inhibit the cleavage of a MALT1 specific quenched fluorescent substrate of sequence [TAMRA-PEG2-Leu-Val-Ser-Arg-Gly-Ala-Ala-Ser-PEG2-K(QSY7) by human MALT-1 protein; where TAMRA is 6-carboxytetramethylrhodamine, PEG2 is 2-(2-(2-aminoethoxy)ethoxyamide linker, QSY7 is a non-fluorescent quenching dye (Thermo-Fisher catalog #Q10193). The assay was performed by pre-dispensing compounds into 384 well Proxiplates™ (PE 6008289). Human MALT-1 (6 nM) was prepared using the assay buffer (25 mM HEPES pH 7.5, 1 mM ethylenediaminetetraacetic acid, 0.8 M sodium citrate, 0.005% Bovine serum albumin (BSA), 2 mM dithiothreitol (DTT)) and added to the compound plates. The plates were incubated 40 minutes at room temperature. The reaction was carried out by adding the substrate (2 μM) to the plates and incubating for 60 minutes at room temperature. A fluorescence readout was then measured using a PE EnVision® reader (Ex.535/Em.590). […] EC50 is defined as the half maximal effective concentration of compound to inhibit MALT-1 protease activity.

The next data set deals with CYP 3A4 mRNA. Briefly: CYP3A4 Induction Assay (qPCR, human hepatocytes). The format is in vitro ADME. As to conditions: 10 μM compound, relative to rifampicin 10 μM. Here is the method: (§1) CYP induction by compounds of the Examples was evaluated in vitro by determining the expression levels of CYP 3A4 mRNA using the qPCR (quantitative polymerase chain reaction) assay. On day one, cryopreserved human hepatocytes were thawed in prewarmed (37° C.) thawing medium (cryopreserved hepatocyte recovery medium, Gibco™ CM 7000; Thermo Fisher Scientific), centrifuged (1000 g for 10 minutes) and resuspended in plating medium (Gibco™ CM3000—Williams Medium E supplemented with hepatocytes plating supplement pak-serum containing; Thermo Fisher Scientific). Cells were counted by trypan blue exclusion using a hemocytometer and adjusted to a cell density of […]. Thereafter, […] of cell suspension was aliquoted per well in a 96-well plate, resulting in 60,000 cells/well. Plates were shaken in the north-south and east-west direction during plating. Plated cells were incubated at 37° C/5% CO2 in a humidified cell culture incubator for 4-6 hours. During this time, incubation medium (Gibco™ CM4000, cell maintenance supplement pack; Thermo Fisher Scientific) was mixed with Gibco™ Geltrex™ (Thermo Fischer Scientific) at the appropriate GeltrexTM protein concentration. Following recovery, medium was removed from cells and replaced with freshly prepared incubation medium. Cells were incubated overnight in a cell culture incubator (37° C./5% CO2).
(§2) The next day the incubation medium was prepared by combining the hepatocyte maintenance supplement pack with Williams Medium E. The medium was warmed to 37° C. 1000× dimethyl sulfoxide compound stocks of the compounds of the Examples were prepared to the desired concentrations. 10 mM compound stocks in dimethyl sulfoxide were diluted (1 μL to 1 mL CM4000; final concentration=10 μM). Overlay medium was aspirated and […] dose solution added to the desired labeled 96 well plate. Cells were then dosed with compound (10 μM) and prototypical induces at the targeted concentrations either 50 i.tM for omeprazole (Sigma 0104/lotBCBF-2161V) or 10 i.tM for rifampicin (Sigma R3501/lot 011M1159V). A negative control, probenecid, was dosed at 10 i.tM (Sigma P8761/lot 013K0148).
(§3) On day 3, RNA isolation was performed. All surfaces were cleaned using RNase RNAy. Total RNA was isolated using MagMAX Express 96 RNA Isolation System (Life Technologies, AM1830). Briefly, hepatocytes were washed once with 1X PBS (phosphate buffered saline). 145 μL of RNA Lysis Buffer was added to each well and each well was mixed by pipetting several times. Lysate was then transferred to a well of a 96 well Binding Plate. Samples were then mixed with 20 μL magnetic beads coming from the kit. RNA bound to beads was then captured by the magnetic tip manifold and beads were washed with the wash solution. Samples were treated with TURBOTmDNase. After TURBOTmDNase treatment, RNA was rebound to beads and washed with the provided wash buffer an additional two times. Beads are then dried, and RNA was eluted with 50 μL elution buffer. The eluted mRNA was transferred from the wells to RNase-free sealable microtiter plates and stored at -80° C. until use.
(§4) Following mRNA isolation, reverse transcription (RT) reactions were performed using TaqmanTm Reverse Transcription Reagents (ThermoFisher Scientific). RT master mix was prepared by mixing 2.5 μL 10× RT buffer, 5.5 μL 25 mM MgCl2, 5μL deoxyNTP mixture, 1.25 50 mM random hexamers, 0.5 μL 2× RNAse inhibitor, 0.625 μL multiscript RTase (50U/μL) and 0.625 μL water. An aliquot of RT mix (16 μL) and an aliquot of mRNA sample (9 μL) was added to each well of a 96-well plate. The SimpliAmpTM Thermal cycler PCR System VIIA7 from Applied Biosystems was used for reverse transcription under the following conditions: segment 1: 25° C. for 10 minutes; segment 2: 45° C. for 45 minutes; segment 3: 95° C. for 5 minutes; and segment 4: 4° C. hold; with 1 cycle for each segment. […]

A further data set relates to CYP3A4 mRNA. In words: CYP3A4 Induction Assay (qPCR, human hepatocytes). The format is in vitro ADME. Particulars: cryopreserved human hepatocytes (plated), 10 μM compound, mRNA fold over vehicle (0.1% DMSO). On the procedure:
as §1, §2, §3, §4

Sequence of human MALT-1 protein (Q9UDY8 whole entry): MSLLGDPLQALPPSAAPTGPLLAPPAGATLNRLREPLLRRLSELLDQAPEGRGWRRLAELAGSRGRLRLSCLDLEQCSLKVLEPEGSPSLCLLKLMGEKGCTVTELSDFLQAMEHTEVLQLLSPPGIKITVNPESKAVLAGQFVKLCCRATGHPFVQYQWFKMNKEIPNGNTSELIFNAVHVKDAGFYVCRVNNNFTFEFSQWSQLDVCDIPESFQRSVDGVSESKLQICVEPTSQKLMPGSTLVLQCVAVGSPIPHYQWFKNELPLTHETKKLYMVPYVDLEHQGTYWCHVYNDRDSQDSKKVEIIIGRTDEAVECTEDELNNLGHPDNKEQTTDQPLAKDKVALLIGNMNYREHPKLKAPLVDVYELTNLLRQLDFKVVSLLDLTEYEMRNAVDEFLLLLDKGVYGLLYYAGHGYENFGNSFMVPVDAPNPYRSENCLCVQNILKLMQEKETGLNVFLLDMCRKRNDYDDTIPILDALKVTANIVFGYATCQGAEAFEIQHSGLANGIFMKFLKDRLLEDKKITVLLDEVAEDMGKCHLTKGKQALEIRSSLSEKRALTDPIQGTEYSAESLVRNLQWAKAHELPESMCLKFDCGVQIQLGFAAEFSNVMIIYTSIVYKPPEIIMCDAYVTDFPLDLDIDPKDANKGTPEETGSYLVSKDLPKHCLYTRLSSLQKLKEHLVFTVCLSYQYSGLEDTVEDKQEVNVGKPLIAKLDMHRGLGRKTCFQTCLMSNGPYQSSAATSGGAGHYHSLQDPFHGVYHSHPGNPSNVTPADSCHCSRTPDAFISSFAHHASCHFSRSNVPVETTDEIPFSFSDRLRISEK

Consider `CO[C@H](c1c(Nc2ccc([C@H](N(C)C(=O)C3CCN(C(C)=O)CC3)C(F)(F)F)cc2)cnc2sc(C)nc12)C(F)F` [Example 18, 1-acetyl-N-{(1,5)-1-[4({7-[(1R)-2,2-difluoro-1-methoxyethyl]-2-methyl[1,3]thiazolo [5,4-b]pyridin-6-yl}amino)phenyl]-2,2,2-trifluoroethyl}-N-methylpiperidine-4-carboxamide], for which the results for the EC50 with OCI-LY3 IL6 and at human MALT-1 protein were 1.15 µM and 0.284 µM, respectively. Moreover, the “CYP3A4 % of positive control (%)” value in the data set with CYP 3A4 mRNA is “(16.5) %”. In the data set with CYP3A4 mRNA, the fold induction at 1 day, 10 µM amounted to 2.8.
For `CO[C@@H](C)c1c(Nc2ccc([C@H](N(C)C(=O)C3CCN(C(=O)[C@H](O)CO)CC3)C(F)(F)F)cc2)cnc2sc(C)nc12` [Example 27, 1-[(2R)-2,3-dihydroxypropanoyl]-N-methyl-N-{(1S)-2,2,2-trifluoro-1-[4-({7-[(1 S)-1-methoxyethyl]-2-methyl[1,3]thiazolo [5,4-b]pyridin-6-yl}amino)phenyl]ethyl}piperidine-4-carboxamide], the EC50 in the data set on OCI-LY3 IL6 worked out at 0.41 µM; on human MALT-1 protein it was 0.07 µM. Also, the “CYP3A4 % of positive control (%)” value with CYP 3A4 mRNA is reported as “(7.55) %”. Also, the fold induction at 1 day, 10 µM in the data set with CYP3A4 mRNA is 1.47.
In the case of `Cc1nc2c([C@H](C)C(F)(F)F)c(Nc3ccc([C@H](N(C)C(=O)C4CCS(=O)(=O)CC4)C(F)(F)F)cc3)cnc2s1` (single isomer, unassigned) [Example 39], the EC50 with OCI-LY3 IL6 stood at 0.04 µM; on human MALT-1 protein it was 0.083 µM. The “CYP3A4 % of positive control (%)” value with CYP 3A4 mRNA is “(14.9) %”. Besides, in the data set on CYP3A4 mRNA, the fold induction at 1 day, 10 µM was determined as 2.29.
For `CO[C@@H](c1c(Nc2ccc([C@H](N(C)C(=O)C3CCS(=O)(=O)CC3)C(F)(F)F)cc2)cnc2sc(C)nc12)C(F)F` [Example 5, N-{(1S)-1-[4-({7-[(1S)-2,2-difluoro-l-methoxyethyl]-2-methyl[1,3]thiazolo [5,4-b]pyridin-6-yl}amino)phenyl]-2,2,2-trifluoroethyl}-N-methyl-1,1-dioxo-1λ^6-thiane-4-carboxamide], in that order: 0.34 µM, 0.077 µM, “(15.3) %” and 1.77.
As to `CO[C@H](c1c(Nc2ccc([C@H](N(C)C(=O)C3CCN(C(=O)CO)CC3)C(F)(F)F)cc2)cnc2sc(C)nc12)C(F)F` [Example 21, N-{(1S) -1-[4-({7-[(1R)-2,2-difluoro-1-methoxyethyl]-2-methyl[1,3]thiazolo[5,4-b]pyridin-6-yl}amino)phenyl]-2,2,2-trifluoroethyl}-1-(hydroxyacetyl)-N-methylpiperidine-4-carboxamide], the EC50 is 0.67 µM in the data set with OCI-LY3 IL6 and 0.141 µM on human MALT-1 protein. In the data set with CYP 3A4 mRNA, the “CYP3A4 % of positive control (%)” value was “(5.55) %”. In the data set on CYP3A4 mRNA, the fold induction at 1 day, 10 µM stood at 1.29.
The corresponding values for `CO[C@@H](C)c1c(Nc2ccc([C@H](N(C)C(=O)C3CCS(=O)(=O)CC3)C(F)(F)F)cc2)cnc2sc(C(F)F)nc12` [Example 15, N-{(1 5)-1-[4-({2-(difluoromethyl)-7-[(1S)-1-methoxyethyl][1,3]thiazolo[5,4-b]pyridin-6-yl}amino)phenyl]-2,2,2-trifluoroethyl}-N-methyl-1,1-dioxo-1λ^6-thiane-4-carboxamide] are 0.3 µM, 0.103 µM, “(−4.74) %” and 0.413.
For the compound `CO[C@@H](C)c1c(Nc2ccc([C@H](N(C)C(=O)C3CCN(C(=O)CO)CC3)C(F)(F)F)cc2)cnc2sc(C)nc12` [Example 20, 1-(hydroxyacetyl)-N-methyl-N-{(1S)-2,2,2-trifluoro-1-[4-({7-[(1S)-1-methoxyethyl]-2-methyl[1,3]thiazolo [5,4-b]pyridin-6-yl}amino)phenyl]ethyl}piperidine-4-carboxamide], the EC50 in the data set with OCI-LY3 IL6 is 0.18 µM; on human MALT-1 protein, 0.12 µM. Further, in the data set on CYP 3A4 mRNA, the “CYP3A4 % of positive control (%)” value is “(4.08) %”. In the data set on CYP3A4 mRNA, the fold induction at 1 day, 10 µM amounted to 1.38.
On to `CO[C@@H](c1c(Nc2ccc([C@H](N(C)C(=O)C3CCN(C(=O)CO)CC3)C(F)(F)F)cc2)cnc2sc(C)nc12)C(F)F` [Example 32, N-{(1S)-1-[4({7-[(1S)-2,2-difluoro-1-methoxyethyl]-2-methyl[1,3]thiazolo [5,4-b]pyridin-6-yl}amino)phenyl]-2,2,2-trifluoroethyl}-1-(hydroxyacetyl)-N-methylpiperidine-4-carboxamide], for which the EC50 in the data set with OCI-LY3 IL6 amounted to 0.25 µM; on human MALT-1 protein, 0.113 µM. Moreover, the “CYP3A4 % of positive control (%)” value with CYP 3A4 mRNA is listed as “(2.56) %”. In addition, in the data set with CYP3A4 mRNA, the fold induction at 1 day, 10 µM was determined as 1.2.
For the compound `CO[C@@H](c1c(Nc2ccc([C@@H](C(F)F)N(C)C(=O)C3CCS(=O)(=O)CC3)cc2)cnc2sc(C)nc12)C(F)F` [Example 13, N-{(1S)-1-[4-({7-[(1S)-2,2-difluoro-1-methoxyethyl]-2-methyl[1,3]thiazolo[5,4-b]pyridin-6-yl}amino)phenyl]-2,2-difluoroethyl}-N-methyl-1,1-dioxo-1λ^6-thiane-4-carboxamide], the EC50 worked out at 0.42 µM in the data set on OCI-LY3 IL6 and 0.193 µM on human MALT-1 protein. Moreover, in the data set on CYP 3A4 mRNA, the “CYP3A4 % of positive control (%)” value was “(34.8) %”. In addition, in the data set with CYP3A4 mRNA, the fold induction at 1 day, 10 µM amounted to 3.19.
